Data taken from patent publication US9024069B2, “NONOate derivatives and uses thereof” (Ironwood Pharmaceuticals, priority 2012, dated 2015).

Key:
[1] = system: normotensive rats; test: Rat normotensive blood pressure model; assay type: in vivo; conditions: normotensive conscious SD rats, single oral dose 30 mg/kg, 6 hours monitoring; FIG. 6
From the text: 36 male SD rats were allowed to acclimate for at least 3 days. After conditioning the rats were arterially cannulated and assigned to 4 treatment groups, with the goal of achieving n=6/group.
After the acclimation period, the rats were briefly anesthetized with inhaled isoflurane and implanted a small bore femoral artery cannula to permit CV monitoring under conscious unrestrained conditions as conducted in prior studies. 18 rats were cannulated per day on 2 consecutive days and allowed 2 days of post-operative recovery prior to CV testing. 12 rats per day were monitored for each of 2 consecutive daily test sessions.
On the morning of the test sessions, the rats were placed in individual bell jars and their femoral artery cannulas were attached to pressure transducers. CV monitoring consisted of continuously recording mean arterial pressure (MAP) and spot checking heart rate (HR; every 5 to 7 minutes) prior to and for 6 hours after a single oral treatment as in previous studies.
Also on the morning of testing, 4 oral treatments in 500 μl of 100% PEG 400 were formulated. The rats were allowed about 1 hour of equilibration prior to dosing. Once suitably equilibrated, each rat was dosed with an oral vehicle or a drug, delivered by standard gavage. The CV recording was continued over the 6-hour post-treatment interval, occasional small flushes of heparinized saline (˜0.1 mL; 20 units/mL) were administered into their arterial catheters in order to maintain recording fidelity.
At the conclusion of the 6-hour CV monitoring interval, a terminal ˜0.6 mL arterial blood sample was taken and the serum or plasma was processed.

[2] = Nitric oxide (NOx) level after oral dosing in male rats, Nitrate/Nitrite Colorimetric Assay; assay type: in vivo, rat; conditions: male SD rats, oral gavage; Fenofibrate 24.8 mg/kg, compounds 6, 7, 8 at 32, 34, 33.8 mg/kg; FIG. 2
Method: 15 male SD (Sprague Dawley) rats were allowed to acclimate for at least 3 days. Fenofibrate, compounds 6, 7, and 8 were administered via oral gavage at molar equivalent doses of 24.8, 32, 34, 33.8 mg/kg, respectively. Animals were fasted overnight and had their food replaced 4 hours after dosing. Compounds were formulated in 300 μL of 100% PEG400. Animals were euthanized under CO2 at the 24 hr time point. Plasma samples were taken for analytical determination of fenofibric acid from compounds in vacutainers containing sodium fluoride. Serum samples were taken for nitric oxide level determination in BD serum collection tubes.
Fenofibric acid was extracted from the plasma using an acetonitrile protein precipitation method. Samples were run on a Waters Aquity TQD LC-MS/MS and analyzed using the MassLynx software. Nitric Oxide levels were measured in serum using a Nitrate/Nitrite Colorimetric Assay Kit from Caymen Chemicals.

[3] = system: high fat, high cholesterol diet rats; test: Rat high fat, high cholesterol diet model (VAP lipid analysis); assay type: in vivo; conditions: HFHC diet rats, once daily p.o. for seven days, compound 8 at 3, 10, 30 mg/kg, Fenofibrate at 2.2, 7.3, 22 mg/kg; for very low-density lipoprotein (VLDL) cholesterol: FIG. 4; for HDL: FIG. 5
Method: Compounds were tested for effects on cholesterol and lipid profiles in a rat high fat diet model for example as described in Ghibaudi et al. (2002) Obes Res 10:956-63, Ricci and Levin (2003) Am J Physiol Regul Integr Comp Physiol 285:R610-8, and Gao et al. (2002) 936:87-90. Alternatively, animals were fed either a normal diet or a chow supplemented with added fat and/or cholesterol as described in Krause et al (1994) Pharm Res VoI 29, No. 4, Nishina (1993) J of Lipid Res vol 43. and Gajda et al. (2007) Animal Lab News. Based on the specific chows used in these reports, animals were fed a diet consisting of 40% fat, 1% cholesterol, and 0.5% cholic acid (catalog #D01061201, Research Diets, New Brunswick, N.J. 08901).
After at least a week on this diet, animals (6-8/group) are dosed once daily perorally with 500 uL test compounds in PEG 400. Groups are dosed for at least one week before whole blood samples are taken for analysis. Blood serum is analyzed using Vertical Auto Profile (VAP; Atherotech, Inc., Birmingham, Ala.) analysis similar to as described in Kulkarni (2006) Clin Lab Med 26:787-802.
Fenofibrate (Sigma—Cat# F6020-5G, Lot#017K1401) was tested in this assay at 2.2, 7.3 and 22 mg/kg which were equimolar equivalents (for the fenofibric acid moiety) of Compound 8 dosed at 3, 10 and 30 mg/kg. In these experiments animals (n=6 per group) were fed a high fat high cholesterol chow (HFHC; 40% fat, 1% cholesterol, 0.5% cholic acid) diet for one week before test compound administration. Animals received either vehicle only (PEG 400) or test compound (compound 8 at 3, 10 or 30 mg/kg or fenofibrate at 2.2, 7.3 or 22 mg/kg) for seven days before whole blood samples were taken for analysis.

[4] = system: rat aortic ring; test: Thoracic aortic rings assay (vasorelaxation of phenylephrine-contracted rings); assay type: ex vivo tissue; conditions: rat thoracic aortic rings contracted with 100 ng/mL phenylephrine; cumulative dosing; FIG. 3
Method: Thoracic aortic rings were dissected from anesthetized (isoflurane) male Sprague-Dawley rats weighing 275-299 g. Tissues were immediately transferred to ice-cold Krebs-Henseleit solution, which had been aerated with 95% O2 and 5% CO2 for 30 minutes. Following removal of connective tissue, aortic sections were cut into 4 rings (˜2 mm each) and suspended on 2 L-shaped hooks, with one hook fixed at the bottom of the tissue bath (Schuler Organ Bath, Harvard Apparatus) and the other connected to a force transducer (F30 Force Transducer, Harvard Apparatus). Baths contained Krebs Henseleit solution (10 mL) heated to 37° C. and aerated with 95% O2 and 5% CO2. Rings were brought to an initial tension of 0.3-0.5 g and gradually raised to a resting tension of 1.0 g over 60 minutes. Rings were rinsed with Krebs Henseleit solution (heated to 37° C. and aerated with 95% 02 and 5% CO2) at 15 minute intervals until a stable baseline was obtained. Rings were considered to be stable after a resting tension of 1.0 g was maintained (for approximately 10 minutes) without need for adjustment. Rings were then contracted with 100 ng/mL phenylephrine by adding 100 uL of a 10 μg/mL phenylephrine stock solution. Tissues achieving a stable contraction were then treated in a cumulative, dose dependent manner with test compounds prepared in dimethylsulfoxide (DMSO). In some cases, tissues were rinsed three times over a 5 minute period with Krebs-Heinseleit's solution (heated to 37° C. and aerated with 95% O2 and 5% CO2), allowed to stabilize at baseline, and then used for characterization of other test articles or DMSO effects. All data were collected using the HSE-ACAD software provided by Harvard Apparatus. Percent relaxation effects were calculated in Microsoft Excel using the recorded tension value of 100 ng/mL phenylephrine treatment as 0% inhibition and treatment with 100 μM 3-isobutyl-1-methylxanthine as 100% inhibition. EC50 values were calculated from concentration-response curves generated with GraphPad Prism Software. […]

[5] = system: L-NAME hypertensive rats; test: Rat L-NAME induced hypertension blood pressure model; assay type: in vivo; conditions: oral gavage, 6 hours monitoring, compound 8 at 10, 30, 60 mg/kg, Fenofibrate 49.6 mg/kg, FIGS. 7 and 8
Method: L-NAME induced hypertension model was carried out at Pharmoptima. Based on the rats' projected average daily water intake, the NO synthase inhibitor L-NAME, L-NG-nitroarginine methyl ester, which induces hypertension, were dissolved in their drinking water so that the rats self-administered tested compounds for 2 weeks prior to study at the targeted daily L-NAME dosage. The rats' L-NAME/water solution was reformulated every other day to insure potency.
After 2 weeks of oral L-NAME preconditioning, the rats were anesthetized with inhaled isoflurane (3-4% in oxygen) and implanted a small bore femoral artery catheter to permit cardiovascular (CV) monitoring under conscious unrestrained conditions. A total of 36 rats (18 rats/day on two consecutive days) were prepared. The catheters were sealed with sodium heparin to maintain patency.
Allow 2 days of post-operative recovery prior to study, allowing full access to food and water (containing dissolved L-NAME) water.
On the study treatment day, […] (n=6×5 treatments) were set up in bell jars under routine non-fasted conditions. Start recording mean arterial pressure (MAP) and heart rate (HR) from this first set of cannulated rats as per previous studies conducted by PharmOptima. Once stable, the rats were dosed by oral gavage. CV data were recorded from the rats over the ensuing 6 hours. 3 arterial blood samples were taken per rat and the harvested plasma samples were frozen.

Row | SMILES | blood pressure [1] | nitric oxide levels in the plasma upon dosing [2] | very low-density lipoprotein (VLDL) cholesterol [3] | HDL [3] | vasorelaxant properties [4] | blood pressure [5]
1 | CN(CCCCO)/[N+]([O-])=N/OCOC(=O)C(C)(C)Oc1ccc(C(=O)c2ccc(Cl)cc2)cc1 [Compound 7, (Z)-1-((2-(4-(4-chlorobenzoyl)phenoxy)-2-methylpropanoyloxy)methoxy)-3-(4-hydroxybutyl)-3-methyltriaz-1-ene 2-oxide] | lowering blood pressure | robust increase in nitric oxide levels | – | – | – | –
2 | CC(C)(Oc1ccc(C(=O)c2ccc(Cl)cc2)cc1)C(=O)OCO/N=[N+](\[O-])N1CCC[C@H]1CO [Compound 8, (S,Z)-2-((2-(4-(4-chlorobenzoyl)phenoxy)-2-methylpropanoyloxy)methoxy)-1-(2-(hydroxymethyl)pyrrolidin-1-yl)diazene oxide] | lowering blood pressure | robust increase in nitric oxide levels | decreases in very low-density lipoprotein (VLDL) cholesterol | dose related increases in HDL | potent vasorelaxant properties in the nM range | lowered blood pressure in an L-NAME model of hypertension in a dose responsive manner
3 | CC(C)OC(=O)C(C)(C)Oc1ccc(C(=O)c2ccc(Cl)cc2)cc1 [Fenofibrate, 2-[4-(4-chlorobenzoyl)phenoxy]-2-methyl-propanoic acid, 1-methylethyl ester, reference compound] | – | no increase in nitric oxide | decreases in VLDL | increases in HDL | – | did not lower blood pressure
4 | CN(CCO)/[N+]([O-])=N/OCOC(=O)C(C)(C)Oc1ccc(C(=O)c2ccc(Cl)cc2)cc1 [Compound 6, (Z)-1-((2-(4-(4-chlorobenzoyl)phenoxy)-2-methylpropanoyloxy)methoxy)-3-(2-hydroxyethyl)-3-methyltriaz-1-ene 2-oxide] | lowering blood pressure | robust increase in nitric oxide levels | – | – | potent vasorelaxant properties in the nM range | –
5 | O=[N+]([O-])O[C@H]1CO[C@H]2[C@@H]1OC[C@H]2O[N+](=O)[O-] [ISDN, isosorbide dinitrate, reference compound] | – | – | – | – | active in this assay as a vasorelaxant in the micromolar range | moderate blood pressure lowering effect
